Assay results: patent publication US20040191842A1, “Chemopreventive and therapeutic aspects of polyphenolic compositions and assays” (Medical College of Georgia Research Institute, Inc., priority 2002, published 2004)
Several values for one entry are separate records, joined by “and”; a condition that tells them apart may be missing. Equal values may be shown once.

What was measured:
OSC2 cells [1] = assay: Cell invasion/migration assay (Transwell), OSC2 cells; type: cell-based, human; details: 50 μM EGCG
Procedure: Cell invasion/migration assay. The invasion/migration assays were conducted using a Transwell apparatus (Costar) with 6.5 mm diameter wells and membranes of 8 μm pore size. The invasiveness at each time point was tested in DMEM/F12 medium immediately following the cell growth assay, by seeding 10^5 cells in each transwell. Cells migrated across the transwell membrane were counted as per microscopic field.

OSC2 cells [2] = assay: BrdU incorporation assay, OSC2 (OSC-2) cells; type: cell-based, human
Procedure: DNA synthesis analysis using BrdU incorporation method. The BrdU cell proliferation kit was purchased from Oncogene Research Products, Boston, Mass. Cells were culture in 96 well plates with 10^4 cells/well. After EGCG and GTPPs treatments, cells were labeled by BrdU, reacted with BrdU antibody and the color reaction was carried out according to the protocol provided by the manufacturer. The coloration was measure by a Thermo MAX microplate reader using wavelengths 450 nm-562 nm.
(§1) DNA synthesis assay. DNA synthesis was analyzed by a BrdU Cell Proliferation Assay Kit (Oncogene Research Products, Boston, Mass.). […] After the treatment, cells were labeled with BrdU for 2 hours at 37° C. and reacted with anti-BrdU antibody. Unbound antibody in each well was removed by rinsing, and horseradish peroxidase-conjugated goat anti-mouse antibody was added to each well. The color reaction was visualized according to the protocol provided by the manufacturer.
as §1, with “cell proliferation assay kit” for “Cell Proliferation Assay Kit”, “anti-mouse IgG” for “anti-mouse”, “reaction to visualize the secondary antibody” for “reaction”, “carried out” for “visualized”

catalase = assay: Catalase activity assay in cell lysates; type: cell-based, human
Procedure: Assays for SOD and catalase activities. Cells (1×10^6 cells/well) were incubated with or without EGCG (50 μM) in FilterCap 50 ml flasks (Nagel Nunc International, Rochester, N.Y.) for 30 minutes at 37° C. After the incubation, cells were harvested and disrupted in 100 μl of 10 mM Tris-HCl (pH 7.4) containing 0.1%(v/v) Triton X-100, 10 μg/ml leupeptin, 10 μg/ml pepstatin A and 100 mM phenylmethylsulfonyl fluoride by three cycles of freezing/thawing. After centrifugation at 17,000×g for 20 minutes at 4° C., the supernatants were used for SOD and catalase assays using the SOD Assay Kit-WST (Dojindo Molecular Technologies, Inc., Gaithersburg, Md.) and the AMPLEX Red Catalase Assay Kit (Molecular Probes), respectively. The activities of SOD and catalase were calibrated using a standard curve prepared with purified human SOD and catalase. The activities of SOD and catalase were expressed as units (U)/10^6 cells.
Assays for SOD and catalase activities. Cells (10^5 cells/well) were incubated with or without EGCG (50 μM) in 24-well culture plates for desirable time periods at 37° C. After the incubation, cells were harvested and disrupted in 100 μl of 10 mM Tris-HCl (pH 7.4) containing 0.1% (v/v) Triton ×-100, 10 μg/ml leupeptin, 10 μg/ml pepstatin A and 100 mM PMSF by three cycles of freezing/thawing. After centrifugation at 17,000×g for 20 minutes at 4° C., the supernatants were used for SOD and catalase assays using the SOD Assay Kit-WST (Molecular Technologies, Inc., Gaithersburg, Md.) and the Amplex Red Catalase Assay Kit (Molecular Probes), respectively. The activities of SOD and catalase were calibrated using a standard curve prepared with purified human SOD and catalase. The activities of SOD and catalase were expressed as units (U)/10^6 cells.

[3] = cited from earlier work
[4] = daily topical 30 mg/ml EGCG for 30 days; cited from earlier work

O=C(O[C@@H]1Cc2c(O)cc(O)cc2O[C@@H]1c1cc(O)c(O)c(O)c1)c1cc(O)c(O)c(O)c1 [EGCG, (−)-epigallocatechin-3-gallate]
cells invading the membrane, of control (OSC2 cells [1]; 24 hours): about 30%
cells invading the membrane, of control (OSC2 cells [1]; 96 hours): 20%
BrdU incorporation, of control levels (OSC2 cells [2]; 200 μM EGCG): approximately 75%
reduction of BrdU incorporation (OSC2 cells [2]; 200 μM EGCG, 24-hour period): approximately 25%
BrdU incorporation (OSC2 cells [2]; EGCG concentrations reached 50 μM, or GTPPs): ceased BrdU incorporation
catalase activity (catalase; 50 μM EGCG, 30 minutes, NHEK, OSC-2, OSC-4): Significant changes in catalase activity was not observed
catalase activity in OSC-4 cells (catalase; EGCG, 24-hour treatment period): slight decrease
catalase and total SOD enzymatic activity levels (catalase; EGCG, 24-hour treatment period, NHEK, OSC-2, OSC-4): had no effect on the enzymatic activity levels
EGCG secreted from human saliva ([3]; after two to three cups of green tea): ≤ 50 μM and ≤ 22.9 μg/ml
absorption through the oral mucosa ([3]; humans): rapidly absorbed through the oral mucosa
dermal toxicity [4]: failed to induce dermal toxicity
